Series [1] is described as follows: Aramchol plasma levels after single oral ascending doses in normal human volunteers. The format is in vivo. The procedure: To 200 μL of each plasma sample, calibrator, and QC sample were added 20 μL of 2.5 μg/mL internal standard solution in 1:1 methanol:water followed by 50 μl, of 5% acetic acid and 2 mL of methyltertbutylether. The samples were mixed on a rotating shaker for 5 minutes and centrifuged. After centrifugation, the aqueous layer of the samples was frozen and the upper (organic) layer was transferred to evaporation tubes and evaporated to dryness under a gentle stream of N2 at ˜40° C. The samples were then reconstituted in 200 μL of 5:4:1 methanol:acetonitrile:20 mM ammonium acetate, mixed, and centrifuged. 100 μL of the clear upper solution was transferred to auto-sampler vials and analyzed by UPLC-MS/MS using a Waters Acquity UPLC BEH C18, 50×2.1 mm, 1.7μ column. A sample blank (blank plasma) and reagent blank (water) were also prepared, but without internal standard added (1:1 methanol:water added instead).
Normal human volunteers (n=12) ingested Aramchol in a formulation containing sodium lauryl sulfate and carboxy methyl cellulose, in a single dose containing 30, 100, 300, or 900 mg of Aramchol. Blood was sampled at 0, 1, 3, 4, 6, 9, 12, 18, 24, 36, 48, and 72 hours following ingestion. Aramchol blood levels were measured by a mass spectroscopy-based method (Goldiner et al., J Chromatogr B Analyt Technol Biomed Life Sci 2003; 795: 35-40). Aramchol plasma levels were measurable at all doses and were dose-proportional.

Series [2] deals with human astrocyte cells (ccf-sttg1 cell line). Put plainly: Cholesterol efflux from a human astrocyte cell line. It is filed as cell-based. The settings on record: for Concentration evoking maximal cholesterol efflux / Concentration of maximal effect on cholesterol efflux: 20 hr incubation, [3H]cholesterol-loaded ccf-sttg1 cells. The procedure:
Human astrocyte cells (1×10^6 cells/ml; ccf-sttg1 cell line) were incubated in 24 plates for 24-48 hours in 10% FCS (Fetal Calf Serum) in DMEM (Dulbecco's modified Eagle's Media) in a humidified 37° C. incubator in the presence of 7.5% CO2. After the incubation time Cholesterol loading was performed by incubating the cells for 20 hr with DMEM supplemented with 30 μg/ml cholesterol, 0.5 μCi/ml of [^3H]cholesterol and 0.2% fatty-acid-free BSA (Bovine Serum Albumin). After incubation, the cells were washed four times with PBS (Phosphate Buffered Saline) containing 0.2% fatty-acid-free BSA. Cells were then incubated for 20 hr in a humidified incubator at 37° C. in the presence of 10% CO2, with or without apolipoproteins (ApoE) or FABACs (Aramchol or Steamchol) at several concentrations. The medium was collected and centrifuged at 12000 g for 5 min to remove cellular debris. The aliquots of the supernatant were taken to count the effluxed [^3H]cholesterol. The remaining cell-associated [^3H]cholesterol was determined after extraction for at least 30 min with propan-2-ol. Efflux was determined in the presence, or absence, of apolipoproteins or FABACs. FABACs were dissolved in ethanol and added to the medium at the concentrations indicated. The amount of [^3H]cholesterol in the medium and cellular extract was quantified by liquid-scintillation counting. The radioactivity released into the medium was expressed as the fraction of the total radioactive cholesterol that was present in the supernatant of each well. The percentage efflux was calculated by dividing the radioactive counts in the efflux medium by the sum of the counts in the medium and cell extract.
Astrocyte brain cells (ccf-sttg1 cell line) were maintained under the same conditions as above (Example 3) and the effect of the 2 physiological stimulants ApoE3 and ApoE4 was tested. […] FABACs evoked a maximal cholesterol efflux at the concentrations of 2 microgram/ml (Steamchol) and 5 microgram/ml (Aramchol) while the apolipoproteins reached a maximal effect at the concentration of 10 microgram/ml. Furthermore, at the above concentrations, the % of cell cholesterol removed into the medium was about 25% higher with the FABACs as compared to the apolipoproteins. Note that the control efflux induced by the medium only is equal in both sets of experiments. The efflux at concentrations of 20 microgram/ml is problematic, since cell damage occurs at this concentration.

The nature of series [3]: 14C-Aramchol radioactivity in the brain of rats after oral administration. The settings on record: for Radioactivity in brain tissues: rat brain homogenate. The format is in vivo, male Wistar rats. The procedure:
Male Wistar rats weighing 200-250 gm received a single gavage administration of ^14C-labeled-Aramchol (suspended in 0.3 ml saline), at a target dose level of 16 μCi/ml (40 μCi/kg). Aramchol is also known as “3beta-arachidyl amido, 7α,12α-dihydroxy-5-beta-cholan-24-oic acid” or “C-20 FABAC,” an amide conjugate (at position 3 of the bile acid) of arachidic and cholic acids. Groups of 3 animals were sacrificed following gavage, using ketamine anesthesia, at 3, 12, 24 or 72 hours.
Brain tissue samples were excised, homogenized in ice-cold 5M guanidine thiocyanate/HCl, pH 8, and rotated at room temperature for 4 h. Homogenates were stored at −80° C. Brain homogenates were diluted and centrifuged, and the ^14C-label was detected by mixing samples with scintillation fluid and reading in a liquid scintillation counter.

The values below come from patent US20120157419A1, “METHODS AND COMPOSITIONS FOR TREATING ALZHEIMER'S DISEASE” (priority 2009, published 2012).

SMILES strings stand for the structures.

Consider `CCCCCCCCCCCCCCCCCCCC(=O)N[C@H]1CC[C@@]2(C)[C@@H](C1)C[C@@H](O)[C@@H]1[C@@H]2C[C@H](O)[C@]2(C)[C@@H]([C@H](C)CCC(=O)O)CC[C@@H]12` [Aramchol, 3β-arachidylamido-7α,12α, dihydroxy 5β-cholan-24-oic acid], for which the “Aramchol plasma level at 24 hr” value in series [1] (24 hr after a single ingestion, human) is on record as “high Aramchol levels”. In addition, the “Aramchol plasma level at 36 hr” value in series [1] (36 hr after a single ingestion, human) is on record as “substantial levels”. In addition, the “Time blood levels remain high” value in series [1] (after a single administration, humans) is reported as “over 24 hours”. For the same compound, in series [1] (single oral dose 30-900 mg, human plasma), the “Aramchol plasma levels versus dose” value is “dose-proportional”. The “Cholesterol efflux at 2 μg/ml” value in series [2] (2 μg/ml, compared with 5-10 μg/ml) was “Lower efflux levels”. Moreover, the “Cholesterol efflux at 20 μg/ml” value in series [2] (20 μg/ml, compared with 5-10 μg/ml) is recorded as “decrease in cholesterol efflux”. In series [2], the “Concentration evoking maximal cholesterol efflux” value came to 5 microgram/ml and the “Concentration of maximal effect on cholesterol efflux” value was in the range of 5 to 10 µg/mL. In series [2] (ccf-sttg1 cells, versus medium), the “Effect on cholesterol efflux” value was “increased cholesterol efflux”. Besides, in series [3] (3 hr after single gavage of 14C-labeled Aramchol (40 μCi/kg)), the “Radioactivity in brain tissues” value is on record as 0.15 cpm/mg tissue. The “Radioactivity in brain tissues” value in series [3] (12 hr after single gavage of 14C-labeled Aramchol (40 μCi/kg)) was found to be 0.32 cpm/mg/tissue. In series [3] (single gavage, rats), the “Time at which brain radioactivity disappeared” value was about 24 h, the “Time of peak radioactivity in brain” value was determined as 12 h and the “Time radioactivity first detected in brain” value turned out to be 3 h.

Regarding `CCCCCCCCCCCCCCCCCC(=O)N[C@H]1CC[C@@]2(C)[C@@H](C1)C[C@@H](O)[C@@H]1[C@@H]2C[C@H](O)[C@]2(C)[C@@H]([C@H](C)CCC(=O)O)CC[C@@H]12` [Steamchol, 3β-stearoylamido-7α,12α-dihydroxy-5β-cholan-24-oic acid], in series [2], the “Concentration evoking maximal cholesterol efflux” value was 2 microgram/ml and the “Concentration of maximal effect on cholesterol efflux” value was determined as 2 µg/mL. Besides, the “Potency on cholesterol efflux relative to comparator” value in series [2] (ccf-sttg1 cells) is “higher potency than Aramchol”.
